# Measured values published in patent US20260262643A1, “HERBICIDAL BENZOXAZINES” (FMC CORPORATION, priority 2022, published 2026).
# Tests used:
# kochia [1] = experiment: Test C preemergence; type: in vivo, Bassia scoparia; conditions: 0 to 100 scale (0 no effect, 100 complete control); for Plant response rating, Kochia: Preemergence, 500 g ai/ha, visual rating after 10 days; for Kochia plant response rating: Test C, preemergence, 125 g ai/ha
# Procedure, shortened: (§1)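 Greenhouse herbicide screen, 10-day duration. Test chemicals in solvent/surfactant blend were sprayed onto soil at sowing (pre) or onto 2–10 cm seedlings at one to two leaves (post); injury scored visually against controls, 0 no effect to 100 complete control.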
# green foxtail [2] = experiment: Test C postemergence; type: in vivo, Setaria viridis; conditions: 10 days
# Procedure, shortened: as §1
# ryegrass, Italian [3] = experiment: Test C preemergence; type: in vivo, Lolium multiflorum; conditions: 0 to 100 scale (0 no effect, 100 complete control); for Plant response rating, Ryegrass, Italian: Preemergence, 500 g ai/ha, visual rating after 10 days; for Ryegrass, Italian plant response rating: Test C, preemergence, 125 g ai/ha
# Procedure, shortened: as §1
# green foxtail [4] = experiment: Test C preemergence; type: in vivo, Setaria viridis; conditions: 0 to 100 scale (0 no effect, 100 complete control); for Plant response rating, Foxtail, Green: Preemergence, 500 g ai/ha, visual rating after 10 days; for Foxtail, Green plant response rating: Test C, preemergence, 125 g ai/ha
# Procedure, shortened: as §1
# wheat [5] = experiment: Test C postemergence; type: in vivo, Triticum aestivum; conditions: 10 days
# Procedure, shortened: as §1
# corn [6] = experiment: Test C preemergence; type: in vivo, Zea mays; conditions: 0 to 100 scale (0 no effect, 100 complete control); for Plant response rating, Corn: Preemergence, 500 g ai/ha, visual rating after 10 days; for Corn plant response rating: Test C, preemergence, 125 g ai/ha
# Procedure, shortened: as §1
# wheat [7] = experiment: Test C preemergence; type: in vivo, Triticum aestivum; conditions: 0 to 100 scale (0 no effect, 100 complete control); for Plant response rating, Wheat: Preemergence, 500 g ai/ha, visual rating after 10 days; for Wheat plant response rating: Test C, preemergence, 125 g ai/ha
# Procedure, shortened: as §1
# blackgrass [8] = experiment: Test C postemergence; type: in vivo, Alopecurus myosuroides; conditions: 10 days
# Procedure, shortened: as §1
# barnyardgrass [9] = experiment: Test C postemergence; type: in vivo, Echinochloa crusgalli; conditions: 10 days
# Procedure, shortened: as §1
# blackgrass [10] = experiment: Test C preemergence; type: in vivo, Alopecurus myosuroides; conditions: 0 to 100 scale (0 no effect, 100 complete control); for Plant response rating, Blackgrass: Preemergence, 500 g ai/ha, visual rating after 10 days; for Blackgrass plant response rating: Test C, preemergence, 125 g ai/ha
# Procedure, shortened: as §1
# horseweed = experiment: Test C postemergence; type: in vivo, Erigeron canadensis; conditions: 10 days
# Procedure, shortened: as §1
# ryegrass, Italian [11] = experiment: Test C postemergence; type: in vivo, Lolium multiflorum; conditions: 10 days
# Procedure, shortened: as §1
# ragweed [12] = experiment: Test C postemergence; type: in vivo, Ambrosia artemisiifolia; conditions: 10 days
# Procedure, shortened: as §1
# oat, wild [13] = experiment: Test C preemergence; type: in vivo, Avena fatua; conditions: 0 to 100 scale (0 no effect, 100 complete control); for Plant response rating, Oat, Wild: Preemergence, 500 g ai/ha, visual rating after 10 days; for Oat, Wild plant response rating: Test C, preemergence, 125 g ai/ha
# Procedure, shortened: as §1
# galium = experiment: Test C postemergence; type: in vivo, Galium aparine; conditions: 10 days
# Procedure, shortened: as §1
# barnyardgrass [14] = experiment: Test D flooded paddy test; type: in vivo, Echinochloa crus-galli; conditions: 250 g ai/ha, applied to paddy water, visual rating after 13 to 14 days, scale 0 to 100 (0 no effect, 100 complete control)
# Procedure, shortened: (§2)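 Visual ratings from 0, meaning no effect, to 100, meaning complete control, were assigned against untreated controls 13 to 14 days after compounds were added to the floodwater of pots kept 3 cm deep, with plants at the 2-leaf stage.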
# pigweed, palmer [15] = experiment: Test C preemergence; type: in vivo, Amaranthus palmeri; conditions: 0 to 100 scale (0 no effect, 100 complete control); for Plant response rating, Pigweed, Palmer: Preemergence, 500 g ai/ha, visual rating after 10 days; for Pigweed, Palmer plant response rating: Test C, preemergence, 125 g ai/ha
# Procedure, shortened: as §1
# rice = experiment: Test D flooded paddy test; type: in vivo, Oryza sativa; conditions: 250 g ai/ha, applied to paddy water, visual rating after 13 to 14 days, scale 0 to 100 (0 no effect, 100 complete control)
# Procedure, shortened: as §2
# barnyardgrass [16] = experiment: Test C preemergence; type: in vivo, Echinochloa crusgalli; conditions: 0 to 100 scale (0 no effect, 100 complete control); for Plant response rating, Barnyardgrass: Preemergence, 500 g ai/ha, visual rating after 10 days; for Barnyardgrass plant response rating: Test C, preemergence, 125 g ai/ha
# Procedure, shortened: as §1
# ducksalad = experiment: Test D flooded paddy test; type: in vivo, Heteranthera limosa; conditions: 250 g ai/ha, applied to paddy water, visual rating after 13 to 14 days, scale 0 to 100 (0 no effect, 100 complete control)
# Procedure, shortened: as §2
# pigweed, palmer [17] = experiment: Test C postemergence; type: in vivo, Amaranthus palmeri; conditions: 10 days
# Procedure, shortened: as §1
# soybean [18] = experiment: Test C preemergence; type: in vivo, Glycine max; conditions: 0 to 100 scale (0 no effect, 100 complete control); for Plant response rating, Soybean: Preemergence, 500 g ai/ha, visual rating after 10 days; for Soybean plant response rating: Test C, preemergence, 125 g ai/ha
# Procedure, shortened: as §1
# ragweed [19] = experiment: Test C preemergence; type: in vivo, Ambrosia artemisiifolia; conditions: 0 to 100 scale (0 no effect, 100 complete control); for Plant response rating, Ragweed: Preemergence, 500 g ai/ha, visual rating after 10 days; for Ragweed plant response rating: Test C, preemergence, 125 g ai/ha
# Procedure, shortened: as §1
# sedge, umbrella = experiment: Test D flooded paddy test; type: in vivo, Cyperus difformis; conditions: 250 g ai/ha, applied to paddy water, visual rating after 13 to 14 days, scale 0 to 100 (0 no effect, 100 complete control)
# Procedure, shortened: as §2
# soybean [20] = experiment: Test C postemergence; type: in vivo, Glycine max; conditions: 10 days
# Procedure, shortened: as §1
# kochia [21] = experiment: Test C postemergence; type: in vivo, Bassia scoparia; conditions: 10 days
# Procedure, shortened: as §1
# corn [22] = experiment: Test C postemergence; type: in vivo, Zea mays; conditions: 10 days
# Procedure, shortened: as §1
# oat, wild [23] = experiment: Test C postemergence; type: in vivo, Avena fatua; conditions: 10 days
# Procedure, shortened: as §1
# [24] = 125 g ai/ha, postemergence, 0 to 100 scale, 0 no effect, 100 complete control
# [25] = Postemergence, 500 g ai/ha, visual 0 to 100 scale (0 no effect, 100 complete control)
smiles,measurement,setting,value
COc1ccc(-n2cncn2)cc1C(=O)N1C[C@H](C)Oc2ccccc21 [Compound 228],"Plant response rating, Kochia",kochia [1],60
same,Kochia plant response rating,kochia [1],0
same,"Plant response rating, Foxtail, Green",green foxtail [2]; [24],30
same,"Plant response rating, Foxtail, Green",green foxtail [2]; [25],90
same,"Plant response rating, Ryegrass, Italian","ryegrass, Italian [3]",90
same,"Ryegrass, Italian plant response rating","ryegrass, Italian [3]",90
same,"Plant response rating, Foxtail, Green",green foxtail [4],100
same,"Foxtail, Green plant response rating",green foxtail [4],100
same,"Plant response rating, Wheat",wheat [5]; [24],50
same,"Plant response rating, Wheat",wheat [5]; [25],90
same,"Plant response rating, Corn",corn [6],60
same,Corn plant response rating,corn [6],10
same,"Plant response rating, Wheat",wheat [7],30
same,Wheat plant response rating,wheat [7],20
same,"Plant response rating, Blackgrass",blackgrass [8]; [24],80
same,"Plant response rating, Blackgrass",blackgrass [8]; [25],90
same,"Plant response rating, Barnyardgrass",barnyardgrass [9]; [24],60
same,"Plant response rating, Barnyardgrass",barnyardgrass [9]; [25],90
same,"Plant response rating, Blackgrass",blackgrass [10],90
same,Blackgrass plant response rating,blackgrass [10],80
same,"Plant response rating, Horseweed",horseweed; [24],10
same,"Plant response rating, Horseweed",horseweed; [25],30
same,"Plant response rating, Ryegrass, Italian","ryegrass, Italian [11]; [24]",100
same,"Plant response rating, Ryegrass, Italian","ryegrass, Italian [11]; [25]",100
same,"Plant response rating, Ragweed",ragweed [12]; [24],10
same,"Plant response rating, Ragweed",ragweed [12]; [25],30
same,"Plant response rating, Oat, Wild","oat, wild [13]",90
same,"Oat, Wild plant response rating","oat, wild [13]",40
same,"Plant response rating, Galium",galium; [24],100
same,"Plant response rating, Galium",galium; [25],100
same,"Plant response rating, Barnyardgrass (Flood)",barnyardgrass [14],15
same,"Plant response rating, Pigweed, Palmer","pigweed, palmer [15]",100
same,"Pigweed, Palmer plant response rating","pigweed, palmer [15]",100
same,"Plant response rating, Rice (Flood)",rice,25
same,"Plant response rating, Barnyardgrass",barnyardgrass [16],100
same,Barnyardgrass plant response rating,barnyardgrass [16],90
same,"Plant response rating, Ducksalad (Flood)",ducksalad,80
same,"Plant response rating, Pigweed, Palmer","pigweed, palmer [17]; [24]",70
same,"Plant response rating, Pigweed, Palmer","pigweed, palmer [17]; [25]",90
same,"Plant response rating, Soybean",soybean [18],90
same,Soybean plant response rating,soybean [18],70
same,"Plant response rating, Ragweed",ragweed [19],50
same,Ragweed plant response rating,ragweed [19],40
same,"Plant response rating, Sedge, Umbrella (Flood)","sedge, umbrella",95
same,"Plant response rating, Soybean",soybean [20]; [24],100
same,"Plant response rating, Soybean",soybean [20]; [25],100
same,"Plant response rating, Kochia",kochia [21]; [24],50
same,"Plant response rating, Kochia",kochia [21]; [25],70
same,"Plant response rating, Corn",corn [22]; [24],40
same,"Plant response rating, Corn",corn [22]; [25],80
same,"Plant response rating, Oat, Wild","oat, wild [23]; [24]",30
same,"Plant response rating, Oat, Wild","oat, wild [23]; [25]",80
CCc1ncn(-c2ccc(C)c(C(=O)N3C[C@H](COC)Oc4c(Cl)cccc43)c2)n1 [Compound 265],"Plant response rating, Kochia",kochia [1],90
same,Kochia plant response rating,kochia [1],80
same,"Plant response rating, Foxtail, Green",green foxtail [2]; [24],90
same,"Plant response rating, Foxtail, Green",green foxtail [2]; [25],90
same,"Plant response rating, Ryegrass, Italian","ryegrass, Italian [3]",90
same,"Ryegrass, Italian plant response rating","ryegrass, Italian [3]",80
same,"Plant response rating, Foxtail, Green",green foxtail [4],100
same,"Foxtail, Green plant response rating",green foxtail [4],100
same,"Plant response rating, Wheat",wheat [5]; [24],40
same,"Plant response rating, Wheat",wheat [5]; [25],70
same,"Plant response rating, Corn",corn [6],90
same,Corn plant response rating,corn [6],30
same,"Plant response rating, Wheat",wheat [7],80
same,Wheat plant response rating,wheat [7],70
same,"Plant response rating, Blackgrass",blackgrass [8]; [24],90
same,"Plant response rating, Blackgrass",blackgrass [8]; [25],90
same,"Plant response rating, Barnyardgrass",barnyardgrass [9]; [24],70
same,"Plant response rating, Barnyardgrass",barnyardgrass [9]; [25],100
same,"Plant response rating, Blackgrass",blackgrass [10],90
same,Blackgrass plant response rating,blackgrass [10],70
same,"Plant response rating, Horseweed",horseweed; [24],40
same,"Plant response rating, Horseweed",horseweed; [25],60
same,"Plant response rating, Ryegrass, Italian","ryegrass, Italian [11]; [24]",80
same,"Plant response rating, Ryegrass, Italian","ryegrass, Italian [11]; [25]",90
same,"Plant response rating, Ragweed",ragweed [12]; [24],80
same,"Plant response rating, Ragweed",ragweed [12]; [25],90
same,"Plant response rating, Oat, Wild","oat, wild [13]",90
same,"Oat, Wild plant response rating","oat, wild [13]",60
same,"Plant response rating, Galium",galium; [24],100
same,"Plant response rating, Galium",galium; [25],100
same,"Plant response rating, Barnyardgrass (Flood)",barnyardgrass [14],30
same,"Plant response rating, Pigweed, Palmer","pigweed, palmer [15]",100
same,"Pigweed, Palmer plant response rating","pigweed, palmer [15]",100
same,"Plant response rating, Rice (Flood)",rice,25
same,"Plant response rating, Barnyardgrass",barnyardgrass [16],90
same,Barnyardgrass plant response rating,barnyardgrass [16],90
same,"Plant response rating, Ducksalad (Flood)",ducksalad,75
same,"Plant response rating, Pigweed, Palmer","pigweed, palmer [17]; [24]",70
same,"Plant response rating, Pigweed, Palmer","pigweed, palmer [17]; [25]",100
same,"Plant response rating, Soybean",soybean [18],90
same,Soybean plant response rating,soybean [18],70
same,"Plant response rating, Ragweed",ragweed [19],70
same,Ragweed plant response rating,ragweed [19],50
same,"Plant response rating, Sedge, Umbrella (Flood)","sedge, umbrella",90
same,"Plant response rating, Soybean",soybean [20]; [24],100
same,"Plant response rating, Soybean",soybean [20]; [25],100
same,"Plant response rating, Kochia",kochia [21]; [24],90
same,"Plant response rating, Kochia",kochia [21]; [25],100
same,"Plant response rating, Corn",corn [22]; [24],60
same,"Plant response rating, Corn",corn [22]; [25],70
same,"Plant response rating, Oat, Wild","oat, wild [23]; [24]",30
same,"Plant response rating, Oat, Wild","oat, wild [23]; [25]",80
